Experimental findings from patent US8552002B2 (Novartis AG, priority 2004, dated 2013) are described below.

Each structure is given as a SMILES string.

Holding throughout (format): biochemical
Assay [1] has as its target T1, KDR (Homo sapiens, UniProt P35968).
T1 construct: expressed in transfected cells; host or cells: CHO cells
Description: Inhibitory activity against KDR (VEGF-R2), in vitro data of Examples 170 and 207. The following applies: 10 μM; Examples 1 to 169; read-out: KDR inhibition at 10 μM. The protocol: (Controls comprise medium without test compounds). After two hours of incubation at 37° C., recombinant VEGF is added; the final VEGF concentration is 20 ng/ml. After a further five minutes incubation at 37° C., the cells are washed twice with ice-cold PBS (phosphate-buffered saline) and immediately lysed in 100 μl lysis buffer per well. The lysates are then centrifuged to remove the cell nuclei, and the protein concentrations of the supernatants are determined using a commercial protein assay (BIORAD). The lysates can then either be immediately used or, if necessary, stored at −20° C. […] The plates are then washed and the remaining free protein-binding sites are saturated with 3% TopBlock® (Juro, Cat. # TB232010) in phosphate buffered saline with Tween 20® (polyoxyethylen(20)sorbitane monolaurate, ICI/Uniquema) (PBST). The cell lysates (20 μg protein per well) are then incubated in these plates overnight at 4° C. together with an antiphosphotyrosine antibody coupled with alkaline phosphatase (PY20:AP from Zymed). […] The luminescence is measured in a Packard Top Count Microplate Scintillation Counter.

Assay [2] concerns the target T2, FGFR3 (K650E) (Homo sapiens, UniProt P22607, K650E).
T2 construct: amino acids 411-806 of the cytoplasmic domain of human FGFR-3, N-terminally fused to GST; made in house; host or cells: Sf9 insect cells (baculovirus)
Description: Recombinant GST-FGFR-3-K650E tyrosine kinase assay (33P into poly(Glu,Tyr)). The following applies: 10 μM; Examples 1 to 169; read-out: FGFR3 (K650E) inhibition at 10 μM.

The target of assay [3] is T3, Tek (Homo sapiens, UniProt Q02763).
T3 construct: amino acids 773-1124 of the cytoplasmic kinase domain of human Tek, N-terminally fused to GST; made in house; host or cells: Sf9 insect cells (baculovirus)
T3 sequence (Q02763 773-1124): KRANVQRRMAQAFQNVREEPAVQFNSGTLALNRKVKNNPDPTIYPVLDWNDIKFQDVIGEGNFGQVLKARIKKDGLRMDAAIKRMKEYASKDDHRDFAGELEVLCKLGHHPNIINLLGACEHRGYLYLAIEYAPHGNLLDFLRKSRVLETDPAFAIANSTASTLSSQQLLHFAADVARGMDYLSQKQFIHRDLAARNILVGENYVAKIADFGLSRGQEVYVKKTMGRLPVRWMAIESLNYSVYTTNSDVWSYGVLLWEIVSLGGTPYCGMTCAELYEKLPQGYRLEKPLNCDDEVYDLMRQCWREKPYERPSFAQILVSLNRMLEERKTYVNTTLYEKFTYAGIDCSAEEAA
Description: Recombinant GST-Tek (Tie-2) tyrosine kinase assay (33P into poly(Glu,Tyr)). The following applies: Examples 1 to 169. From the text:
(Tie-2/Tek): The baculovirus donor vector pFbacG01 was used to generate a recombinant baculovirus that expressed the amino acid region amino acids 773-1124 of the cytoplasmic kinase domain of human Tek, N-terminally fused to GST (Provided by Dr. Marmé, Institute of Molecular Medicine, Freiburg, Germany based on a Research Collaboration). Tek was recloned into the pFbacG01 transfer vector by EcoRI excision and ligation into EcoRI digested pFbacG01 (FBG-Tie2/Tek).
Production of virus: Transfer vectors containing the kinase domains were transfected into the DH10Bac cell line (GIBCO) and plated on selective agar plates. Colonies without insertion of the fusion sequence into the viral genome (carried by the bacteria) are blue. Single white colonies were picked and viral DNA (bacmid) isolated from the bacteria by standard plasmid purification procedures. Sf9 cells or Sf21 cells were then transfected in 25 cm^2 flasks with the viral DNA using Cellfectin reagent.
Determination of small scale protein expression in Sf9 cells: Virus containing media was collected from the transfected cell culture and used for infection to increase its titer. Virus containing media obtained after two rounds of infection was used for large-scale protein expression. For large-scale protein expression 100 cm^2 round tissue culture plates were seeded with 5×10^7 cells/plate and infected with 1 mL of virus-containing media (approx. 5 MOIs). After 3 days the cells were scraped off the plate and centrifuged at 500 rpm for 5 min. Cell pellets from 10-20, 100 cm^2 plates, were resuspended in 50 mL of ice-cold lysis buffer (25 mMTris-HCl, pH7.5, 2 mMEDTA, 1% NP-40, 1 mM DTT, 1 mMP MSF). The cells were stirred on ice for 15 min and then centrifuged at 5000 rpms for 20 min.
Purification of GST-tagged proteins: The centrifuged cell lysate was loaded onto a 2 mL glutathione-sepharose column and washed three times with 10 mL of 25 mM Tris-HCl, pH 7.5, 2 mM EDTA, 1 mM DTT, 200 mM NaCl. The GST-tagged proteins were then eluted by 10 applications (1 mL each) of 25 mM Tris-HCl, pH 7.5, 10 mM reduced-glutathione, 100 mM NaCl, 1 mM DTT, 10% Glycerol and stored at −70° C.
Measure of enzyme activity: Tyrosine protein kinase assays with either purified GST-Ret, GST-Tek or GST-FGFR-3-K650E were carried out in a final volume of 30 μL with final concentrations of the following components: Ret included 15 ng of GST-Ret, 20 mM Tris-HCl, pH 7.5, 1 mM MnCl2, 10 mM MgCl2, 1 mM DTT, 3 μg/mL poly(Glu,Tyr) 4:1, 1% DMSO and 2.0 μM ATP (γ-[^33P]-ATP 0.1 μCi). Tek included 150 ng of GST-Tek, 20 mM Tris-HCl, pH 7.5, 3 mM MnCl2, 3 mM MgCl2, 1 mM DTT, 0.01 mM Na3VO4, 250 μg/mL PEG 20'000, 10 μg/mL poly(Glu,Tyr) 4:1, 1% DMSO and 4.0 μM ATP (γ-[^33P]-ATP 0.1 μCi). FGFR-3-K650E included 10 ng of GST-FGFR-3-K650E, 20 mM Tris-HCl, pH 7.5, 3 mM MnCl2, 3 mM MgCl2, 1 mM DTT, […], 10 μg/mL poly(Glu,Tyr) 4:1, 1% DMSO and 4.0 μM ATP (γ-[^33P]-ATP 0.1 μCi).The activity was assayed in the presence or absence of inhibitors, by measuring the incorporation of ^33P from [γ^33P] ATP into poly(Glu,Tyr) 4:1. The assay was carried out in 96-well plates at ambient temperature for 30 min under conditions described below and terminated by the addition of 50 μL of 125 mM EDTA. Subsequently, 60 μL of the reaction mixture were transferred onto Immobilon-PVDF membrane (Millipore) previously soaked for 5 min with methanol, rinsed with water, then soaked for 5 min with 0.5% H3PO4 and mounted on vacuum manifold with disconnected vacuum source. After spotting all samples, vacuum was connected and each well rinsed with 200 μL 0.5% H3PO4. Membranes were removed and washed 4× on a shaker with 1.0% H3PO4, once with ethanol. Membranes were counted after drying at ambient temperature, mounting in Packard TopCount 96-well frame, and addition of 10 μL/well of Microscint™ (Packard). […]

T1 sequence (P35968 20-1356): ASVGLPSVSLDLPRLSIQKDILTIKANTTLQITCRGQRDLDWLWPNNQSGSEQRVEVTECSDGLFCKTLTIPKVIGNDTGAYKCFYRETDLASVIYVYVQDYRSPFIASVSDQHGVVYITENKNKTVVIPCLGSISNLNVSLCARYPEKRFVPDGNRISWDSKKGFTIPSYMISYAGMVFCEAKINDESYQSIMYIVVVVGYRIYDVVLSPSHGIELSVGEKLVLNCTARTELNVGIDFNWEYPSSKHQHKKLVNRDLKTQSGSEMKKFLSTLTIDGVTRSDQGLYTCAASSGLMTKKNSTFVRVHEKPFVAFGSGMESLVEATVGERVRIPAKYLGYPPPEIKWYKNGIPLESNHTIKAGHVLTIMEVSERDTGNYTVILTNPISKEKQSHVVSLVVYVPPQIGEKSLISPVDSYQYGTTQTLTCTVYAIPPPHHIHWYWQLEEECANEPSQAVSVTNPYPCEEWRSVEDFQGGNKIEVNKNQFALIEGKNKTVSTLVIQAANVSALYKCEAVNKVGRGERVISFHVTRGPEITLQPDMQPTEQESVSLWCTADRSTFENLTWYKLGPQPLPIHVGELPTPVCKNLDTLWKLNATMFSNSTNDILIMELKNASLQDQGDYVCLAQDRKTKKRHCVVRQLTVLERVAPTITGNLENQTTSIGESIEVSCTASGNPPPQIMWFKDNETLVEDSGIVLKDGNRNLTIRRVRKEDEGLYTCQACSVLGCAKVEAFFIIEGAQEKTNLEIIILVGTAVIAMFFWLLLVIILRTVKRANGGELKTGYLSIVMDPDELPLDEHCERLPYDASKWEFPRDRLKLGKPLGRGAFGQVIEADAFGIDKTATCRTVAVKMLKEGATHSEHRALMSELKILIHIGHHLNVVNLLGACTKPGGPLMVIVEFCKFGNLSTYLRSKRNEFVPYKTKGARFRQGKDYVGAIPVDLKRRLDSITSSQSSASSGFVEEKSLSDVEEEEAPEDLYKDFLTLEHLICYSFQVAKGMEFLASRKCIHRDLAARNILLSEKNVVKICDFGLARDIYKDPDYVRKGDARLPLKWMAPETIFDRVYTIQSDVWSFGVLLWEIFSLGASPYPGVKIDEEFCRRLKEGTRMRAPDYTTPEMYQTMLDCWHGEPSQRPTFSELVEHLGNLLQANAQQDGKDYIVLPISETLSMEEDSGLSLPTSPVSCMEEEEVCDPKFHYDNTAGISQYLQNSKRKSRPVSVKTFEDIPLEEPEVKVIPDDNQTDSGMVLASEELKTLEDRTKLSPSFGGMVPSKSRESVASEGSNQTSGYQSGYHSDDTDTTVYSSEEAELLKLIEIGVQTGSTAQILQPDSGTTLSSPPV
T2 sequence (P22607 411-806 K650E): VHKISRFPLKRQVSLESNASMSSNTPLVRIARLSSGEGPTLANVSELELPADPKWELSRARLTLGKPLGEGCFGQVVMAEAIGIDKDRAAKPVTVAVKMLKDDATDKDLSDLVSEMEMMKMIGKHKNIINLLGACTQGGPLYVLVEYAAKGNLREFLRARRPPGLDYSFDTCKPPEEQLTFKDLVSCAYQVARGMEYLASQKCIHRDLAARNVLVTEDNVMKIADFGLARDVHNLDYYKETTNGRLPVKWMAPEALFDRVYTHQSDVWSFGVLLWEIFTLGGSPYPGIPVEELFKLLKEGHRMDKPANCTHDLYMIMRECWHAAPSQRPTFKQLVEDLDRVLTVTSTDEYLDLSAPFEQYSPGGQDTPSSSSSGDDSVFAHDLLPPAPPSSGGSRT

For orientation: inhibition means the relative decrease from the control value, in per cent. Take `COc1ccc(Cl)c(NC(=O)N(C)c2cc(Nc3ccc(CN4CCN(C)CC4)cc3)ncn2)c1Cl` [Example 62, 3-(2,6-Dichloro-3-methoxy-phenyl)-1-methyl-1-{6-[4-(4-methyl-piperazin-1-ylmethyl)-phenylamino]-pyrimidin-4-yl}-urea]: the inhibition at 10 µM in assay [1] is 67 to 100%; in assay [2] it was 27 to 100%; in assay [3], 12 to 100%.

Turning to `COc1cc(OC)c(Cl)c(NC(=O)N(C)c2cc(Nc3cccc(CN(C)CCN(C)C)c3)ncn2)c1Cl` [Example 162, 3-(2,6-Dichloro-3,5-dimethoxy-phenyl)-1-[6-(3-{[(2-dimethylamino-ethyl)-methyl-amino]-methyl}-phenylamino)-pyrimidin-4-yl]-1-methyl-urea], the inhibition at 10 µM in assay [1] fell in the range of 67 to 100%; in assay [2], 27 to 100%; in assay [3] it was 12 to 100%.

As for `COc1cc(NC(=O)Nc2cc(Nc3cccc(N4CCN(C)CC4)c3)ncn2)ccc1F` [Example 33, 1-(4-Fluoro-3-methoxy-phenyl)-3-{6-[3-(4-methyl-piperazin-1-yl)-phenyl-amino]-pyrimidin-4-yl}-urea], the inhibition at 10 µM in assay [1] lay in the range of 67 to 100%; in assay [2] it was 27 to 100%; in assay [3], 12 to 100%.

In the case of `COc1cc(NC(=O)N(CCN2CCN(C)CC2)c2cc(Nc3ccccc3)ncn2)c(Cl)c(OC)c1` [Example 57, 3-(2-Chloro-3,5-dimethoxy-phenyl)-1-[2-(4-methyl-piperazin-1-yl)-ethyl]-1-(6-phenylamino-pyrimidin-4-yl)-urea], the inhibition at 10 µM lay in the range of 67 to 100% in assay [1], 27 to 100% in assay [2] and 12 to 100% in assay [3].

For `COc1cc(NC(=O)Nc2cc(Nc3ccc(N4CCN(C)CC4)cc3)ncn2)cc(OC)c1OC` [Example 14, 1-{6-[4-(4-Methyl-piperazin-1-yl)-phenylamino]-pyrimidin-4-yl}-3-(3,4,5-trimethoxy-phenyl)-urea], the inhibition at 10 µM in assay [1] was in the range of 67 to 100%; in assay [2] it was 27 to 100%; in assay [3] it was 12 to 100%.

As to `O=C(Nc1cc(Nc2cccc(Cl)c2)ncn1)Nc1ccccc1Cl` [Example 128, 3-(2-Chloro-phenyl)-1-[6-(3-chloro-phenylamino)-pyrimidin-4-yl]-urea], the results for the inhibition at 10 µM in assay [1], in assay [2] and in assay [3] were 67 to 100%, 27 to 100% and 12 to 100%, respectively.

Take `COc1cc(NC(=O)N(CCc2ccccn2)c2cc(Nc3ccccc3)ncn2)c(Cl)c(OC)c1` [Example 58, 3-(2-Chloro-3,5-dimethoxy-phenyl)-1-(6-phenylamino-pyrimidin-4-yl)-1-(2-pyridin-2-yl-ethyl)-urea]: the inhibition at 10 µM in assay [1] fell in the range of 67 to 100%; in assay [2], 27 to 100%; in assay [3], 12 to 100%.

For the molecule `COc1cc(NC(=O)Nc2cc(Nc3ccc(N4CCN(C)CC4)cc3)ncn2)cc(OC)c1` [Example 18, 1-(3,5-Dimethoxy-phenyl)-3-{6-[4-(4-methyl-piperazin-1-yl)-phenyl-amino]-pyrimidin-4-yl}-urea], the inhibition at 10 µM was in the range of 67 to 100% in assay [1], 27 to 100% in assay [2] and 12 to 100% in assay [3].

Turning to `COc1ccc(NC(=O)N(C)c2cc(Nc3ccc(F)cc3)ncn2)cc1` [Example 116, 1-[6-(4-Fluoro-Phenylamino)-pyrimidin-4-yl]-3-(4-methoxy-phenyl)-1-methyl-urea], the inhibition at 10 µM in assay [1] fell in the range of 67 to 100%; in assay [2] it was 27 to 100%; in assay [3], 12 to 100%.

In the case of `COc1cc(OC)c(Cl)c(NC(=O)N(C)c2cc(Nc3cccc(CN4CCN(C(C)C)CC4)c3)ncn2)c1Cl` [Example 161, 3-(2,6-Dichloro-3,5-dimethoxy-phenyl)-1-{6-[3-(4-isopropyl-piperazin-1-ylmethyl)-phenylamino]-pyrimidin-4-yl}-1-methyl-urea], the inhibition at 10 µM in assay [1] was 67 to 100%; in assay [2], 27 to 100%; in assay [3] it was 12 to 100%.

On to `CCN(C(=O)Nc1c(Cl)ccc(OC)c1Cl)c1cc(Nc2ccc(N3CCN(C)CC3)cc2)ncn1` [Example 59, 3-(2,6-Dichloro-3-methoxy-phenyl)-1-ethyl-1-{6-[4-(4-methyl-piperazin-1-yl)-phenylamino]-pyrimidin-4-yl}-urea], for which the inhibition at 10 µM in assay [1] lay in the range of 67 to 100%; in assay [2], 27 to 100%; in assay [3], 12 to 100%.

In the case of `CN(C)c1cccc(Nc2cc(NC(=O)Nc3c(F)cccc3F)ncn2)c1` [Example 106, 1-(2,6-Difluoro-phenyl)-3-[6-(3-dimethylamino-phenylamino)-pyrimidin-4-yl]-urea], the inhibition at 10 µM in assay [1] was in the range of 67 to 100%; in assay [2] it was 27 to 100%; in assay [3] it was 12 to 100%.

On to `CN1CCN(c2ccc(Nc3cc(NC(=O)Nc4ccccc4Cl)ncn3)cc2)CC1` [Example 93, 1-(2-Chloro-phenyl)-3-{6-[4-(4-methyl-piperazin-1-yl)-phenylamino]-pyrimidin-4-yl}-urea], for which the inhibition at 10 µM in assay [1] lay within 67 to 100%; in assay [2] it was 27 to 100%; in assay [3] it was 12 to 100%.

For `CN(C)c1cccc(Nc2cc(N(C)C(=O)Nc3c(Cl)cccc3Cl)ncn2)c1` [Example 120, 3-(2,6-Dichloro-phenyl)-1-[6-(3-dimethylamino-phenylamino)-pyrimidin-4-yl]-1-methyl-urea], the inhibition at 10 µM in assay [1] lay in the range of 67 to 100%; in assay [2] it was 27 to 100%; in assay [3], 12 to 100%.

Consider `COc1cc(OC)c(Cl)c(NC(=O)N(C)c2cc(Nc3ccc(OCCCN4CCN(C)CC4)cc3)ncn2)c1Cl` [Example 146, 3-(2,6-Dichloro-3,5-dimethoxy-phenyl)-1-methyl-1-(6-{4-[3-(4-methyl-piperazin-1-yl)-propoxy]-phenylamino}-pyrimidin-4-yl)-urea], for which the figures for the inhibition at 10 µM in assay [1], in assay [2] and in assay [3] were 67 to 100%, 27 to 100% and 12 to 100%, respectively.
